Results on 17 molecules are retold here after patent publication US11919896B2, “[1,2,4]triazolo[1,5-a]pyridine compound as JAK inhibitor and use thereof” (Zhuhai United Laboratories Co., Ltd., priority 2018, dated 2024).

Structures are written as SMILES. Where “and” joins values, the source holds several entries; their conditions need not be identical. Identical values can stand only once. Like-named read-outs stand apart in the source and are kept apart here. Marks after values point to notes of the source that are not given here.

In series [1] the target is TYK2 (Homo sapiens (Human), UniProt P29597). Nature of the series: In vitro kinase activity test, TYK2(h) enzyme reaction. Type of series: biochemical.
Sequence of TYK2 (P29597 whole entry): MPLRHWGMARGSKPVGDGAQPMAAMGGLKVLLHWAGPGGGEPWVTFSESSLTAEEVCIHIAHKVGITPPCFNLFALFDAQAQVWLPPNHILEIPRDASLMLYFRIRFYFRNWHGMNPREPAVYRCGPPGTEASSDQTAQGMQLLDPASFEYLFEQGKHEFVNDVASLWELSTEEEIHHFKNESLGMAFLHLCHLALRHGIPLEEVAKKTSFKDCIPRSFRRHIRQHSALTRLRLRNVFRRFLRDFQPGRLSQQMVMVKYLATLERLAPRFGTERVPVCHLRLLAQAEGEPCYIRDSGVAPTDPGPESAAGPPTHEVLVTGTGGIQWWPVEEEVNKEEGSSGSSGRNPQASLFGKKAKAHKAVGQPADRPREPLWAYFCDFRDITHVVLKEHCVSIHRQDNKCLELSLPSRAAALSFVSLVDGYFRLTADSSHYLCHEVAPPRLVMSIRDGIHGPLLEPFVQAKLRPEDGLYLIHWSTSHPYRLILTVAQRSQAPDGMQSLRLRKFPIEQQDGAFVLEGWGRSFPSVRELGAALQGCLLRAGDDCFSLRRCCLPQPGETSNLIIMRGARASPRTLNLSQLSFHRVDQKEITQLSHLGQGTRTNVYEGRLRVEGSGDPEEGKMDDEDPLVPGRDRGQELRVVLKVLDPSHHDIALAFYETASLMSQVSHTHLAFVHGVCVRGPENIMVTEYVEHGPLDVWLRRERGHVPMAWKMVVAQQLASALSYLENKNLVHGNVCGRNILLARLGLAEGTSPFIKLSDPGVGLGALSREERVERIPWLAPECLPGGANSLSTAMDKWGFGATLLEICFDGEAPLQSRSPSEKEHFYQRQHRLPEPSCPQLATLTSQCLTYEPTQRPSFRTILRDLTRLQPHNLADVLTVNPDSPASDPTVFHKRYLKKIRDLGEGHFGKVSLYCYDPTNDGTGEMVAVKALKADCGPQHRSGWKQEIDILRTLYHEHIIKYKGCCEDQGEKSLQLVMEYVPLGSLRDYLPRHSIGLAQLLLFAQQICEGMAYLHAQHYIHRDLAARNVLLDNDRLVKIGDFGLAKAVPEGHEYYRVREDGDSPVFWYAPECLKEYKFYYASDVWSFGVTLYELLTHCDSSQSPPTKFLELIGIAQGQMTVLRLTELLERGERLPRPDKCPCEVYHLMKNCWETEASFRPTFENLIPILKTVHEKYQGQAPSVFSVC
Procedure: (§1) Recombinant human JAK1, JAK2, JAK3, Tyk2 protease, most of the apparatuses and reagents were supplied by Eurofins (UK).
(§2) All the compounds were prepared into 100% DMSO solution and the concentration reached final measured concentration of 50 times. The test compound was diluted by a 3-fold concentration gradient, and the final concentration was 9 concentrations from 10 μM to 0.001 μM. The content of DMSO in the detect reaction was 2%. The stock solution of this compound was added into wells as a first component, then the other components were added as the following detailed process.
Enzyme Reaction of TYK2(h)
(§3) Mixture of Mg/ATP was added to start reaction, which was stopped by adding 0.5% phosphoric acid after 40 minutes incubation.
In series [2] the target is JAK1 (Homo sapiens (Human), UniProt P23458). As to the kind of experiment: In vitro kinase activity test, JAK1(h) enzyme reaction. The class given is biochemical.
Sequence of JAK1 (P23458 whole entry): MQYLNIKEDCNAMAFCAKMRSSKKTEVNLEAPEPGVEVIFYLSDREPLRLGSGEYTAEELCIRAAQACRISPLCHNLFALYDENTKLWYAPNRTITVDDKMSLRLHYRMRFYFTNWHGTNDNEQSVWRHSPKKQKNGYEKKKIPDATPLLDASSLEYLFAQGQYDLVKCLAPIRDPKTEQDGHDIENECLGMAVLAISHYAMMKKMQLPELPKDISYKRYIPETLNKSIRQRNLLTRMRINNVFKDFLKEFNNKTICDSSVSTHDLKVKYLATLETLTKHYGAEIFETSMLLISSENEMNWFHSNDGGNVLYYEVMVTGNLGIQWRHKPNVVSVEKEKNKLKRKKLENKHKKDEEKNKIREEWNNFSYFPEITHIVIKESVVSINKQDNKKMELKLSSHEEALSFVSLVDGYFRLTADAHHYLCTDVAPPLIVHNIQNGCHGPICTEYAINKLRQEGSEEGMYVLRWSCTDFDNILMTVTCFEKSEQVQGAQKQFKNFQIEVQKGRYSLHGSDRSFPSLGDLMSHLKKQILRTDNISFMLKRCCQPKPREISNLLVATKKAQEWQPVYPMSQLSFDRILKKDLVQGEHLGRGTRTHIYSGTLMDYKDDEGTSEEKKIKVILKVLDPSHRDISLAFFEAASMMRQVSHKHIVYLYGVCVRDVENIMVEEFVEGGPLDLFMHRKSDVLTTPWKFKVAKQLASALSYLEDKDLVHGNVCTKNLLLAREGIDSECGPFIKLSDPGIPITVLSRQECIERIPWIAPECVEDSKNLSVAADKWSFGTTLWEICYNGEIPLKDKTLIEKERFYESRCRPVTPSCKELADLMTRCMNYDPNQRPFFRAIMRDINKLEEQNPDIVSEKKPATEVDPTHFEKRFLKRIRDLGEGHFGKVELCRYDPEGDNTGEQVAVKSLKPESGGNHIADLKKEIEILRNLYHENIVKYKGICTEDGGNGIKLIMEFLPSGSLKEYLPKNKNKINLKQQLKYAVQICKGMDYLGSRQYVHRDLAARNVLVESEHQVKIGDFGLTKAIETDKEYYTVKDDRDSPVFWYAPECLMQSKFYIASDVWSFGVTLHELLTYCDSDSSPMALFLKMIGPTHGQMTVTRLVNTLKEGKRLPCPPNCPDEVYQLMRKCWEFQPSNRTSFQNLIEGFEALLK
Procedure: (§4) Experiment 1: In Vitro Test of Activities of Jak1, Jak2, Jak3, Tyk2 Kinases
as §1, §2
Enzyme Reaction of JAK1(h)
Mixture of Mg/ATP was added to start reaction, which was stopped by adding 0.5% phosphoric acid after 40 minutes incubation at room temperature.
The target in series [3] is JAK3 (Homo sapiens (Human), UniProt P52333). Nature of the series: In vitro kinase activity test, JAK3(h) enzyme reaction. Type of series: biochemical.
Sequence of JAK3 (P52333 whole entry): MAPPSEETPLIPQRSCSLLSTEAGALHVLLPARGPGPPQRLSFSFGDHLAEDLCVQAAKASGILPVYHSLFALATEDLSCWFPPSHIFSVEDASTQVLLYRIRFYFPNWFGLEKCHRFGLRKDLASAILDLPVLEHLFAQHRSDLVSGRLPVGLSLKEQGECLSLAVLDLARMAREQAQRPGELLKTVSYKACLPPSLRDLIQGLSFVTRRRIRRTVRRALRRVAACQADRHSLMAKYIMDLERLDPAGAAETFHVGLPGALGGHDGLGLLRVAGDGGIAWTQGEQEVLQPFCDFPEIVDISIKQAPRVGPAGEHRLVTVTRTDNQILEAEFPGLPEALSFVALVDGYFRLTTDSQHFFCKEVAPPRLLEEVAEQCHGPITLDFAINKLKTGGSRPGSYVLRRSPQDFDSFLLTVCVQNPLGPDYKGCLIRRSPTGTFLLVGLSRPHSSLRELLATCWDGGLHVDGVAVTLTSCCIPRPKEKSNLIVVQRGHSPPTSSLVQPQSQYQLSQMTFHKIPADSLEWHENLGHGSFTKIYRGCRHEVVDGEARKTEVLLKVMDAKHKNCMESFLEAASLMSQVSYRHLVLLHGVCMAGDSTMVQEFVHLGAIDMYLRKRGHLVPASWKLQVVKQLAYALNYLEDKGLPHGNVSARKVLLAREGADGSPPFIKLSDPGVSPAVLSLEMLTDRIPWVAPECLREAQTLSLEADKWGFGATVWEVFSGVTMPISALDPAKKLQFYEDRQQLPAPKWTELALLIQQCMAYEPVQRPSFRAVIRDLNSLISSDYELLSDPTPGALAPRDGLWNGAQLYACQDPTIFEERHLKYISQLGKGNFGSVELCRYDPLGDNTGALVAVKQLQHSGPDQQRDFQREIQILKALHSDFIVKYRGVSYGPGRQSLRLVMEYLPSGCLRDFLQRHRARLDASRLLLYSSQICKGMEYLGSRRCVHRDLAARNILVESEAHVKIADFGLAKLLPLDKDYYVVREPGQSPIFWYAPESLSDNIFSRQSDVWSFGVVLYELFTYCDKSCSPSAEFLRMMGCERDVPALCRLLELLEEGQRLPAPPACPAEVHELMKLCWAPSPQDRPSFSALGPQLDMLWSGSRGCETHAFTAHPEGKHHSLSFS
Procedure: as §1, §2
Enzyme Reaction of JAK3(h)
as §3
Series [4] has as its target JAK2 (Homo sapiens (Human), UniProt O60674). As to the kind of experiment: In vitro kinase activity test, JAK2(h) enzyme reaction. The class given is biochemical.
Procedure: as §4, §1, §2
Enzyme Reaction of JAK2(h)
as §3
Series [5] has as its system collagen-induced arthritis (CIA) in mice. The class given is in vivo, DBA/1 mice. Also noted: key to Average clinical score: score 0-4 per limb, max 16 per animal. The method, then: Experiment 3: In Vivo Efficacy Study of Collagen-Induced Arthritis (CIA) in Mice
1. Type II Collagen/Complete Freund's Adjuvant Immune
Preparation of acetic acid: 2N acetic acid was diluted to 100 mM, filtered by 0.22 micron filter membrane, and stored at 4° C.
Bovine type 2 collagen (CII) was dissolved in 100 mM acetic acid solution, then stored overnight at 4° C. Final concentration of the collagen is 8 mg/ml.
Preparation of emulsion: the overnight stored CII solution was mixed with equal volume of complete Freund's adjuvant, and homogenized on ice on a high-speed homogenizer at 30,000 revolutions per minute for approximately 60 minutes until the solution forms a stable emulsion.
2. Induction of Arthritis:
Mice were randomly divided into different treatment groups. The day for the first immunization is recorded as day 0, and the subsequent days are marked in order.
DBA/1 mice were anesthetized with isoflurane and injected with […] prepared collagen emulsion (containing […] CII) subcutaneously (2-3 cm from the root of the tail). At day 21, the tail was injected with the same volume of collagen emulsion in the same way. The mice in the normal group was not immunized.
3. Designs of Administration and Dosages
At day 28, when average clinical score is about […] with moderate incidence were selected ad randomly divided into 5 treatment groups based on body weights and scores, with each group having 8 mice.
Dexamethasone (Dex.) was used as a reference drug for measuring whether the model was successfully established, with a dose of 0.3 mg/kg (a commonly used dose in a CIA model). […] They were administered twice a day for a total of 14 days.
4. Measuring of Incidence Index of Arthritis
Clinical observation: from 7 days before immunization to the 21st day after immunization, the basic health status and weight changes of DBA/1 mice was observed daily (recorded once a week). After the 22nd day, the health status, the incidence circumstances, and weight changes of the mice was observed every day (recorded at least three times a week) until the end of the experiment.
Clinical scoring: the incidence of the mice was observed every day after boosting the immune function. After the mice was attacked (showing clinical symptoms of arthritis), the incidence was scored from 0-4 as scoring standard according to different levels of the disease (redness, joint deformation). The highest score for each limb is 4, and the highest score for each animal is 16. The scoring was performed three times a week.
The experimental data is expressed as mean standard error (Mean SEM), and the area under the curve (AUC) is analyzed by one-way ANOVA. P<0.05 is considered to be significant.

Series [6] concerns adjuvant-induced arthritis rat model. As to conditions: AIA rats, 30 mg/kg p.o. bid.
Setting [7] is: CIA mice, 0.3 mg/kg p.o. qd, day 21.
Setting [8] is: CIA mice, 0.3 mg/kg p.o. qd, day 24.
[9] abbreviates: CIA mice, 0.3 mg/kg p.o. qd, day 27.
Where [10] appears, read: CIA mice, 0.3 mg/kg p.o. qd, day 28.
[11] abbreviates: CIA mice, 0.3 mg/kg p.o. qd, day 29.
Where [12] appears, read: CIA mice, 0.3 mg/kg p.o. qd, day 31.
Setting [13] is: CIA mice, 0.3 mg/kg p.o. qd, day 31, listed as Dex.
The mark [14] stands for this setting: CIA mice, 0.3 mg/kg p.o. qd, day 34.
Where [15] appears, read: CIA mice, 0.3 mg/kg p.o. qd, day 36.
Where [16] appears, read: CIA mice, 0.3 mg/kg p.o. qd, day 38.
The mark [17] stands for this setting: CIA mice, 0.3 mg/kg p.o. qd, day 41.

Sequence of JAK2 (O60674 whole entry): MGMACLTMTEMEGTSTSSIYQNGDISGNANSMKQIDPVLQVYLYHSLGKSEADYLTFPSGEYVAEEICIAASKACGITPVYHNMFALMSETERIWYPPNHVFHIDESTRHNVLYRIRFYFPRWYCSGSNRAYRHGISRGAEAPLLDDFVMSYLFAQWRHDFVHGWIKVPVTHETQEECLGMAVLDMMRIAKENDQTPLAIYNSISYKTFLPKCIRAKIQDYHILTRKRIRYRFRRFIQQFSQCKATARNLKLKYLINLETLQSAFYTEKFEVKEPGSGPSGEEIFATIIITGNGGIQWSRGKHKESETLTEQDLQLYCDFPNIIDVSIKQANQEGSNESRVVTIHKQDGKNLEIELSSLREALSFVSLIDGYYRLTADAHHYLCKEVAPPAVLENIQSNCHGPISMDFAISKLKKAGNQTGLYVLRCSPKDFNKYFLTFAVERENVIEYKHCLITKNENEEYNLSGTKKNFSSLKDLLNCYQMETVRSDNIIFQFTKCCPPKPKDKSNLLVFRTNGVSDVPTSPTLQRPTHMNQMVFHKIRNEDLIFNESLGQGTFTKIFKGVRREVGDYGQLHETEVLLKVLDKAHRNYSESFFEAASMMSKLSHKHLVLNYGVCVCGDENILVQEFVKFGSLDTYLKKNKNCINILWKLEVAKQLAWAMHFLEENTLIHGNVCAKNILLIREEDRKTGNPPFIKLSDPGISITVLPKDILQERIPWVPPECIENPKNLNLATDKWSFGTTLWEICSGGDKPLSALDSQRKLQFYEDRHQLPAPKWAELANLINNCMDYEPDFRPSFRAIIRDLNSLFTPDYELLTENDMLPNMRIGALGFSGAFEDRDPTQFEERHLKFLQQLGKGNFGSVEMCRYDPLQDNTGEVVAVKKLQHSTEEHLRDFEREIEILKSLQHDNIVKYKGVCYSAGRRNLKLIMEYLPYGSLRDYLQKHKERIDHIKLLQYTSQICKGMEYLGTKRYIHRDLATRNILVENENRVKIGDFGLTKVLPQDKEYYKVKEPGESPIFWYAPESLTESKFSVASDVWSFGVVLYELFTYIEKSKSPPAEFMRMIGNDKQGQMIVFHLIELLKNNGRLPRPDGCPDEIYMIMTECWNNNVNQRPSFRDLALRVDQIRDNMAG

By IC50 is commonly meant the concentration that gives 50% inhibition. In the case of `CC(C)(C#N)C(=O)N1CC2(CCC(c3cccc4nc(NC(=O)C5CC5)nn34)CC2)C1` [Compound 1-15], the IC50 in series [1] worked out at 106 nM; in series [2], 20 nM; in series [3], 9670 nM.

Consider `N#CCN1CC2(CCC(c3cccc4nc(NC(=O)C5CC5)nn34)CC2)C1` [Compound 1-16], for which the results for the IC50 in series [1], in series [2] and in series [3] were 581 nM, 114 nM and > 10000 nM, respectively.

Consider `N#CCCN1CC2(CCC(c3cccc4nc(NC(=O)C5CC5)nn34)CC2)C1` [Compound 1-17], for which the values for the IC50 in series [1], in series [2] and in series [3] were 371 nM, 65 nM and > 10000 nM, respectively.

For the molecule `N#CCC(=O)N1CC2(CCC(F)(c3cccc4nc(NC(=O)C5CC5)nn34)CC2)C1` [Compound 4-6], the IC50 in series [1] turned out to be 307 nM; in series [2], 170 nM; in series [4], 2010 nM; in series [3], 8450 nM.

For `O=C(Nc1nc2cccc(C3CCC4(CC3)CCN(C(=O)[C@@H]3CC3(F)F)C4)n2n1)C1CC1` (some centres unmarked) [Compound 5-7], the IC50 in series [1] turned out to be 67 nM; in series [2], 31 nM; in series [4], 324 nM; in series [3], 5760 nM.

Consider `O=C(Nc1nc2cccc(C3CCC4(CC3)CCN(C(=O)[C@@H]3CC3(F)F)C4)n2n1)C1CC1` (some centres unmarked) [Compound 5-8], for which the IC50 in series [1] was determined as 692 nM; in series [2], 75 nM; in series [4] it was 789 nM; in series [3], 7350 nM.

Take `O=C(Nc1nc2cccc([C@H]3CCC4(CCN(C(=O)[C@@H]5CC5(F)F)CC4)C3)n2n1)C1CC1` [Compound 6-7]: the IC50 was 829 nM in series [1], 63 nM in series [2] and 9390 nM in series [3].

For `O=C(Nc1nc2cccc([C@@H]3CCC4(CCN(C(=O)[C@@H]5CC5(F)F)CC4)C3)n2n1)C1CC1` [Compound 6-8], the IC50 was 570 nM in series [1], 381 nM in series [2] and > 10000 nM in series [3].

In the case of `O=C(Nc1nc2cccc([C@H]3CCC4(C3)CN(C(=O)[C@@H]3CC3(F)F)C4)n2n1)C1CC1` [Compound 7-7], the IC50 in series [1] is 830 nM; in series [2], 63 nM; in series [3] it was > 10000 nM.

For the molecule `O=C(Nc1nc2cccc([C@@H]3CCC4(C3)CN(C(=O)[C@@H]3CC3(F)F)C4)n2n1)C1CC1` [Compound 7-8], the IC50 in series [1] is 404 nM; in series [2], 176 nM; in series [3], > 10000 nM.

With `O=C(Nc1nc2cccc(C3CCC4(CC3)CN(C(=O)[C@@H]3CC3(F)F)C4)n2n1)[C@H]1CC1(F)F` [Compound 8-6], the IC50 amounted to 127 nM in series [1], 14 nM in series [2], 110 nM in series [4] and 7640 nM in series [3].

With `N#CCN1CC2(CCC(c3cccc4nc(NC(=O)[C@H]5CC5(F)F)nn34)CC2)C1` [Compound 8-9], the IC50 was 1330 nM in series [1], 52 nM in series [2], 3670 nM in series [4] and > 10000 nM in series [3].

As to `O=C(Nc1nc2cccc(C3CCC4(CC3)CN(C(=O)[C@@H]3CC3(F)F)C4)n2n1)[C@@H]1CC1(F)F` [Compound 9-3], the IC50 in series [1] is 105 nM; in series [2], 7 nM; in series [4], 292 nM; in series [3], > 10000 nM.

`N#CCN1CC2(CCC(c3cccc4nc(NC(=O)[C@@H]5CC5(F)F)nn34)CC2)C1` [Compound 9-6]: the IC50 was 1390 nM in series [1], 432 nM in series [2], 1170 nM in series [4] and > 10000 nM in series [3].

In the case of `N#CCC(=O)N1CCC2(CCC(c3c(F)ccc4nc(NC(=O)C5CC5)nn34)CC2)CC1` [Compound 10-5], the IC50 in series [1] worked out at 430 nM; in series [2], 336 nM; in series [4] it was 812 nM; in series [3], 5410 nM.

For `C[C@@H]1C[C@H]2[C@@H]3CCC4=CC(=O)C=C[C@]4(C)[C@@]3(F)[C@@H](O)C[C@]2(C)[C@@]1(O)C(=O)CO` [Dexamethasone], the “Inhibition rate (clinical score AUC vs blank group)” value is on record as 97.3% in series [5] (CIA mice, 0.3 mg/kg p.o. qd) and 97.3% in series [5] (CIA mice, 0.3 mg/kg p.o. qd, listed as Dex). In addition, the “AUC ± SEM of clinical score (AUC of incidence)” value in series [5] (CIA mice, 0.3 mg/kg p.o. qd, administration period) is on record as 1.38 ± 0.81. In addition, the Average clinical score in series [5] (setting [7]) is 0.00 ± 0.00; in series [5] (setting [8]), 0.00 ± 0.00; in series [5] (setting [9]), “about 0.3”; in series [5] (CIA mice, 0.3 mg/kg p.o. qd, day 27, listed as Dex), 0.25 ± 0.16; in series [5] (setting [10]) it was 0.50 ± 0.27; in series [5] (setting [11]) it was 0.25 ± 0.16. In addition, the Average clinical score in series [5] (setting [12]) is given as 0; in series [5] (setting [13]), 0.00 ± 0.00; in series [5] (setting [14]), 0.00 ± 0.00; in series [5] (setting [15]), 0.00 ± 0.00; in series [5] (setting [16]), 0.00 ± 0.00; in series [5] (setting [17]), 0.00 ± 0.00. For the same molecule, the Incidence of arthritis worked out at 0% in series [5] (setting [7]); 0% in series [5] (setting [8]); 25% in series [5] (setting [9]); 38% in series [5] (setting [10]); 25% in series [5] (setting [11]); 0% in series [5] (setting [12]). For the same molecule, the Incidence of arthritis in series [5] (setting [13]), in series [5] (setting [14]), in series [5] (setting [15]), in series [5] (setting [16]) and in series [5] (setting [17]) was 0% throughout. Besides, the “Effect on the weight of mice (comparison between groups)” value in series [5] (mouse, in vivo, po, 0.3 mg/kg) is listed as “largest weight loss”.

As to `O=C(Nc1nc2cccc(-c3ccc(CN4CCS(=O)(=O)CC4)cc3)n2n1)C1CC1` [Filgotinib], in series [6], the “Inhibition rate of total pathological score” value turned out to be 5%. Also, the “Clinical scoring, average” value is given as 6.0 in series [6] (day 13); 6.6 in series [6] (day 15); 6.3 in series [6] (day 17); 5.8** in series [6] (day 20); 5.5*** in series [6] (day 22); 5.4**** in series [6] (day 24). Besides, the “Feet volume, average” value is given as 1.9 mL in series [6] (day 13); 2.2 mL in series [6] (day 15); 2.0** mL in series [6] (day 17); 1.9**** mL in series [6] (day 20); 2.0**** mL in series [6] (day 22); 2.0**** mL in series [6] (day 24). Moreover, the “Feet volume, average” value in series [6] (day 27) is 1.91 mL and 1.9**** mL. Moreover, the “Pathology Scoring: Bone resorption” value in series [6] (day 27, right hind leg) is 3.6 ± 0.2. For the same molecule, in series [6] (day 27, right hind leg), the “Pathology Scoring: Pannus formation” value is given as 3.9 ± 0.1. Also, in series [6] (day 27, right hind leg), the “Pathology Scoring: Total score” value is 15.2±0.49 and 15.2 ± 0.5. Further, in series [6] (day 27, right hind leg), the “Pathology Scoring: articular injury” value is 3.7 ± 0.2.
